According to patent US9968574B2, “Treatment of MCI and Alzheimer's disease” (The University of Kentucky Research Foundation, priority 2009, dated 2018):
Entries after “also recorded” stand apart in the source; their conditions may differ. Where two headings read alike, the source gives them in different places.

Legend:
[1] = system: H4 neuroglioblastoma cells stably transfected to overexpress amyloid precursor protein (APP); test: Aβ1-42 secreted into medium by H4 cells overexpressing APP, ELISA; format: cell-based
Experimental: H4 neuroglioblastoma cells stably transfected with a construct overexpressing amyloid precursor protein (APP) secret Aβ1-42 into the culture medium. […] The Aβ levels in the culture medium were measured using ELISAs (Invitrogen).
We then tested if other calcium channel blockers can inhibit Aβ 1-42 generation in H4 neuroglioma cultures. Known calcium channel blockers such as Amilodpine, Dilitiazem, Felodipine, Isradipine, Nicardipine, and Nimodipine were used in this experiment.

Human astrocytoma cells = test: Inflammatory cytokine ELISAs in astrocytoma cultures; format: cell-based; conditions: for IL-1 secreted in the medium / IL-6 secreted in the medium / TNF-α secreted in the medium: 24 hours
Experimental: Following exposure medium was collected from each well and levels of inflammatory cytokines ([…], TNF-α, TGF-β and […]) were determined using commercially available ELISAs.
It was reported that inflammatory response elements (cytokines) are elevated in Alzheimer's disease patients. The inventors tested the nifedipine mix and individual analogs in astrocytoma cultures. Human astrocytoma cells were plated at 2.5×10^5 cells/well in 6 well culture plates and were grown for 24 hours. […] Three 6-well plates were subjected to each treatment. Following treatment, medium was collected from each well and levels of IL-1β, IL-6, TNF-α and TGF-β were measured using commercially available ELISAs.
Using a similar procedure to that described in Example 3, NFD-L1 was tested in astrocytoma cultures.

beta secretase (BACE) = biological target: T1, beta secretase (BACE) (Homo sapiens, UniProt P56817); test: BACE activity, fluorescent substrate and purified recombinant BACE (Invitrogen kit); format: biochemical
T1 construct: purchased Invitrogen
Experimental: BACE activity was measured using a fluorescent substrate and purified recombinant BACE as part of a commercial kit from Invitrogen.
Using a similar procedure as described in Example 8, NFD-L1 was tested for inhibition of BACE activity.

mice = test: Aβ and Aβ processing proteins in mice, ELISA and Western blot; format: in vivo, mouse; conditions: IP injections (nitroso-nifedipine 35 mg/kg, 3 days)
Experimental: It is contemplated that increased ADAM-10 levels lead to increased cleavage at the alpha secretase position of APP, minimizing generation of Aβ.
The effects of NFD-L1 on levels of enzymes involved in Aβ processing in vivo were determined using a similar procedure to that described in Example 15.

[2] = system: H4 neuroglioma cultures that overexpress APP; test: Levels of enzymes involved in Aβ processing in H4 cultures overexpressing APP, immunohistochemistry; format: cell-based
Experimental: Following treatment, cultures were rinsed three times in PBS and fixed in 70% methanol/30% acetone for 30 minutes at −20° C. Cultures were then subjected to immunohistochemistry for BACE, PS-1, GPCR-3, nicastrin, and ADAM (the enzyme responsible for alpha secretase cleavage). 30 to 50 cells were imaged in 4-5 fields/dish (3 dishes each treatment) (FIG. 22). […] Alpha secretase cleavage leads to decreased Aβ1-42.
Using a similar procedure as described in Example 13, H4 neuroglioma cultures were treated with NFD-L1 to determine the effects of NFD-L1 on levels of enzymes involved in Aβ processing.

PDS/TTR complex [3] = test: PDS/TTR complex expressed into culture medium by choroid plexus epithelial cells, Western blot; format: cell-based, human; conditions: control epithelial cells, 5 μM acrolein, 72 hours
Experimental: For these experiments, primary cultures of choroid plexus epithelial cells were established from short post mortem interval autopsies using established methods. AD and normal control cultures were grown to confluence in MEM growth medium containing 2% fetal bovine serum and 1% epithelial growth factor (EGF). Normal control cultures were switched to Opti-MEM containing N2 supplement and were treated with vehicle (controls) or with 5 μM acrolein for 72 hours. […] After treatment, medium was collected from each flask and was desalted using PD-10 columns. The eluted proteins were then freeze-dried, resuspended in 25 μl water and analyzed using Western blot analysis and antibodies specific to PDS and TTR.
The amount of PDS/TTR secreted into the culture medium by each culture was determined by Western blot analysis as described above.

PDS/TTR complex [4] = test: PDS/TTR-positive epithelial cells by immunostaining; format: cell-based, human; conditions: acrolein alone
Description: In addition, immunostaining was used to determine the PDS/TTR-positive cells and the numbers of PDS/TTR-positive cells from treated and untreated cell cultures were counted and compared.

[5] = system: orphan G-coupled receptor protein 3 (GPCR-3); conditions: H4 cells, 1 μM (0.5 μM T3/0.5 μM T4), 16 hours
Experimental: Levels of GPCR-3 were measured using Western blot analysis using a GPCR-3 specific antibody.

[6] = system: orphan G-coupled receptor protein 3 (GPCR-3); conditions: mice of Example 10
Experimental: (§1) Based on the in vitro data described above, the inventors initiated an acute exposure study in 3 month old C57-Black-6 (C57BL/6) mice.
In addition, GPCR-3 levels were determined in the C57BL/6 mice described above in Example 10 using Western blot analysis.

C57/B16 mice [7] = test: EAAT2 in tissue of treated mice, Western blot; format: in vivo, mouse; conditions: 25 mg/kg, 3 days
C57/B16 mice [8] = test: Brain Aβ1-40 in mice given nitroso-nifedipine IP, Covance ELISA; format: in vivo, mouse; conditions: 35 mg/kg IP, 3 days
Experimental: The animals were sacrificed 15 minutes following the final injection. Brains were quickly removed, split into hemispheres, and snap frozen in liquid nitrogen. Brains were shipped on dry ice and maintained at −80° C. until used for analysis. One hemisphere of each brain was homogenized in diethylamine (200 mg wet weight/mL) containing complete protease inhibitors using a Dounce homogenizer. Homogenate was centrifuged at 16,000×g for 30 minutes and 50 μL soluble protein subjected to Aβ1-40 quantification using a Covance ELISA per manufacturer's instructions. Results are expressed as % vehicle treated animals.

H4 neuroglioma cultures [9] = test: Survival of H4 cells, MTT reduction; format: cell-based; conditions: increasing concentrations, 16 hours
Experimental: Specifically, H4 neuroglioma cultures were plated at a density of 2.5×10^5 cells/well and allowed to attach overnight. […] Following treatment, MTT was added at a final concentration of 0.5 mg/mL and cultures incubated for 30 minutes. Following MTT treatment, medium was removed and the formazan crystals generated by mitochondrial conversion of MTT were dissolved in DMSO and absorbance was measured at 650 nm. Data are reported as mean±SEM % control MTT reduction (FIG. 21).

[10] = Liver toxicity study: serum alkaline phosphatase in mice; format: in vivo, mouse
H4 neuroglioma cultures [11] = test: Calcium influx after KCl depolarization in H4 cultures, Fluo-4 AM confocal microscopy; format: cell-based; conditions: 1 μM nifedipine or […] nitroso-nifedipine, 1 hour
Experimental: Cells were depolarized by addition of 40 μL 100 mM KCl and calcium levels quantified 30 seconds following depolarization by confocal microscopy (n=75-100 cells/dish for 3 dishes/treatment).

[12] = mouse, in vivo
Description: as §1

T1 sequence (P56817 46-501): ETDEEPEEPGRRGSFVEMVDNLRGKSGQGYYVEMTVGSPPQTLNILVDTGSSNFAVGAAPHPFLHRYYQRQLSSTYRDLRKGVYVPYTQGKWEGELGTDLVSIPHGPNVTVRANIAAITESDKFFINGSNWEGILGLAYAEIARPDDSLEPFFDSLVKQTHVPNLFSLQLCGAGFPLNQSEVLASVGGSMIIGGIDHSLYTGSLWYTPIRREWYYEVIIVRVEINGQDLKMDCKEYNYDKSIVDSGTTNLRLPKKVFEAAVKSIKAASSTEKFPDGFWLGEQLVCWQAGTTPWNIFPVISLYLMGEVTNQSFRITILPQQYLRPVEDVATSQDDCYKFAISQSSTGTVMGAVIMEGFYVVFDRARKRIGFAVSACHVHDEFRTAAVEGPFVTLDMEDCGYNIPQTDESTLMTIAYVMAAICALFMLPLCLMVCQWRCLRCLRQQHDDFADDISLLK

Row | SMILES | IL-1 secreted in the medium (Human astrocytoma cells) | IL-6 secreted in the medium (Human astrocytoma cells) | TNF-α secreted in the medium (Human astrocytoma cells) | BACE activity (beta secretase (BACE); agent alone) | ADAM-10 level (mice) | Aβ1-40 level (mice) | cleaved Notch-1 level (mice) | presenilin-1 level (mice) | ADAM-10 level [2] | BACE protein level [2] | PS-1 level [2] | nicastrin (NCT) level [2] | BACE activity (beta secretase (BACE); in combination with thyroxine) | other results
1 | COc1ccc([C@@H]2Sc3ccccc3N(CCN(C)C)C(=O)[C@@H]2OC(C)=O)cc1 [Dilitiazem, reference compound] | – | – | – | – | – | – | – | – | – | – | – | – | – | Aβ formation, calcium channel blocker combined with T3/T4 ([1]; 1 μM with T3/T4, 16 hours): significant decrease
2 | COC(=O)c1c(C)nc(C)c2c(=O)[nH]c3ccccc3c12 [NFD-L1] | significantly reduced | significantly reduced | significantly reduced | significantly inhibits | significant increase | significant decrease | significant increase | significant decrease | significant increase | significant decrease | significant decrease | significant decrease | – | inflammatory cytokine production (Human astrocytoma cells): inhibited; Aβ 1-42 generation ([1]; procedure similar to Example 6): inhibited
3 | C=CC=O [acrolein] | – | – | – | – | – | – | – | – | – | – | – | – | – | expression of the PDS/TTR complex in culture medium (PDS/TTR complex [3]): increased; number of PDS/TTR-positive cells, % of untreated control (PDS/TTR complex [4]): about 600%
4 | COC(=O)C1=C(C)NC(C)=C(C(=O)OC)C1c1ccccc1[N+](=O)[O-] [nifedipine, 1,4-dihydro-2,6-dimethyl-4-(2-nitrophenyl)-3,5-pyridinedicarboxylic acid dimethyl ester] | – | – | – | slightly inhibited | – | – | – | – | – | – | – | – | slightly inhibited | GPCR-3 expression level [5]: significantly reduced; GPCR-3 expression level [6]: reduced; EAAT2 level (C57/B16 mice [7]): significant increase
5 | COC(=O)c1c(C)nc(C)c(C(=O)OC)c1-c1ccccc1N=O [nitroso-nifedipine, 2,6-dimethyl-4-(2-nitrosophenyl)-3,5-pyridinedicarboxylic acid dimethyl ester] | – | – | – | significant inhibition; also recorded: significantly inhibits | significant increase | significant decrease | significant increase | significant decrease | significant increase | significant decrease | did not significantly alter | did not significantly alter | significant inhibition | levels of Aβ1-40, % vehicle treated animals (C57/B16 mice [8]): significant decrease; resistance (survival) of H4 cultures compared to nifedipine (H4 neuroglioma cultures [9]): more resistant; GPCR-3 level [2]: significant increase; serum alkaline phosphatase level ([10]; 35 mg/kg): significant decrease; serum alkaline phosphatase level ([10]; any dose): did not significantly increase; liver damage ([10]; mice): does not induce liver damage; Ca influx following depolarization (H4 neuroglioma cultures [11]): significant increase
6 | COC(=O)c1c(C)nc(C)c(C(=O)OC)c1-c1ccccc1[N+](=O)[O-] [oxidized nifedipine, 2,6-dimethyl-4-(2-nitrophenyl)-3,5-pyridinedicarboxylic acid dimethyl ester] | significantly reduced | significantly reduced | significantly reduced | – | – | – | – | – | – | – | – | – | – | presence in brain extracts (passing the blood-brain barrier) [12]: found in all samples analyzed
